Data from patent publication US20190322638A1, “DIPYRIDYL ALKALOID, PREPARATION METHOD THEREFOR AND USE THEREOF” (OCEAN UNIVERSITY OF CHINA, priority 2016, published 2019).
Like-named read-outs stand apart in the source and are kept apart here.

Columns and labels:
[1] = test system: human peripheral blood leukemia T cell lines (Jurkat cells); test: In vitro antitumor activity, Jurkat cells; type: cell-based; conditions: for IC50: Homo sapiens, read-out: Cytotoxic Activity IC50; for SI = CC50 (normal cell line L-02)/IC50 (tumor cell line): Jurkat cell line vs L-02
Description: (§1) Cell lines and subculture of cells: The following five tumor cell lines were used for activity test human colon cancer cell lines (HCT-116 cells), human hepatoma cell lines (HepG2 cells), human breast cancer cell lines (MCF-7 cells), cervical cancer cell lines (Hela cells), human peripheral blood leukemia T cell lines (Jurkat cells), and human normal liver cell lines (L-02 cells), of which MCF-7, HepG2, Hela, and L-02 cell lines were tested using the MTT model; HCT-116 cell lines were tested using the SRB model. All of the cells were subcultured in a 10% FBS-containing RPMI-1640 medium in an incubator charged with 5% carbon dioxide at 37° C.
(§2) Selection Index (SI) is the ratio of the CC50 value of a test sample inhibiting the growth of normal cell lines to the IC50 value of the test sample inhibiting tumor cell proliferation, which reflects the selectivity and safety of the sample.
(§3) SI=CC50(normal cell line L-02)/IC50(tumor cell line) Equation: […]

[2] = Toxicity to normal cells, MTT method; type: cell-based; conditions: human, L-02 cell line
Description: as §1
(§4) MTT method: Dehydrogenase in mitochondria in live cells was capable of metabolizing yellow bromized 3-(4,5-dimethylthiazole)-2,5-diphenyltetrazolium into ianthinus water-insoluble formazan, and an amount of formazan could be determined by measuring the absorbance thereof with a microplate reader. Since the amount of formazan was directly proportional to the number of live cells, the number of live cells could be determined from the absorbance to learn about the drug's capability of inhibiting or killing tumor cells. […] The cell suspension was inoculated to a 96-well plate at 100 μL per well, and cultured at 37° C. for 24 hours. Thereafter, 100 μL of the sample solutions at different concentrations were added to respective wells and continued to be cultured for 72 hours. Then, 20 μL of MTT-containing IPMI-1640 solution ([…]) was added. After further cultivation for 4 hours, the culture solutions were slowly decanted and 150 μL of DMSO was added to dissolve the formazan, and the absorbance was measured at a wavelength of 540 nm. […] The half inhibitory concentration against cancer cells (IC50) and the half inhibitory concentration against normal cells (CC50) were determined.

[3] = test system: human colon cancer cell lines (HCT-116 cells); test: In vitro antitumor activity, SRB method; type: cell-based; conditions: for SI = CC50 (normal cell line L-02)/IC50 (tumor cell line): HCT-116 cell line vs L-02; for IC50: Homo sapiens, read-out: Cytotoxic Activity IC50
Description: as §1
SRB method: According to the cell growth rate, tumor cells at the logarithmic phase (medium: RPMI-1640 medium containing 10% newborn fetal bovine serum (FBS); cell density: 3×10^4 cells/mL) were inoculated into a 96-well culture plate at 180 μL/well, and subjected to adherent growth for 24 hours at 37° C. under 5% CO2. Subsequently, a test sample was added at 20 μL/well, and four duplicated wells were provided at each concentration. […] The culture solution was decanted, and the cells were fixed with 10% cold trichloroacetic acid (TCA), allowed to stand at 4° C. for 1 hour, and then washed 5 times with distilled water and dried in the air. Thereafter, 100 μL/well of a 4 mg/ml solution of sulforhodamine B (SRB, Sigma) formulated by 1% glacial acetic acid was added, and the mixture was stained at a room temperature for 15 minutes, and the supernatant was removed, washed 5 times with 1% acetic acid, and dried in the air. Finally, 150 μL/well of Tris solution was added, and the absorbance (OD value) was measured with a microplate reader at a wavelength of 540 nm. […] The half inhibitory concentration against cancer cells (IC50) was determined.
as §2, §3

[4] = test system: cervical cancer cell lines (Hela cells); test: In vitro antitumor activity, MTT method; type: cell-based; conditions: for SI = CC50 (normal cell line L-02)/IC50 (tumor cell line): Hela cell line vs L-02; for IC50: Homo sapiens, read-out: Cytotoxic Activity IC50
Description: as §1, §4, §2, §3

[5] = test system: human hepatoma cell lines (HepG2 cells); test: In vitro antitumor activity, MTT method; type: cell-based; conditions: for SI = CC50 (normal cell line L-02)/IC50 (tumor cell line): HepG2 cell line vs L-02; for IC50: Homo sapiens, read-out: Cytotoxic Activity IC50
Description: as §1, §4, §2, §3

[6] = test system: colon cancer HCT-116 transplantation tumors; test: In vivo antitumor test on transplantation tumors in nude mice; set-up: species or system BALB/C (nu/nu) nude mice; conditions: HCT-116, 14 days, Docetaxel 5 mg/kg intravenously every other day, Compound 2 7.5 mg/kg intraperitoneally daily; for Tumor Weight: X ± S; for Inhibition Rate % (tumor inhibition rate): vs negative control
Description: An in vivo antitumor test for Compound 2 was conducted on in vivo transplantation tumors from nude mice experiencing colon cancer HCT-116.
Laboratory mice: BALB/C, (nu/nu) nude mice, from 18 to 20 g in weight, male; purchased from BEIJING HFK BIOSCIENCE Co., LTD.; License No.: SCXK (Jing)-2014-0004.
Positive drug: Docetaxel, dissolved with Tween DMSO as a solvent and formulated into 9 mg/mL solution for service; diluted with normal saline.
Test drug: Compound 2, 10 mg/mL of stock solution being dissolved with DMSO, diluted with normal saline till the concentration was 0.75 mg/mL, and the administration volume was 0.1 mL/10 g body weight.
(§5) A cell suspension of human colon cancer cell line HCT-116 at a concentration of 30 million/mL was formulated in a 5 A medium containing 10% fetal bovine serum. After conventional disinfection, the cell suspension was inoculated subcutaneously into the armpits of the right forelimbs of the mice at a dose of 0.2 ml for each. The mice were not administered until the tumors had grown to an average volume of about 100 mm^3. Positive drugs, compounds, and negative control groups were arranged. The dosages were 5 mg/kg of Docetaxel (positive), and 7.5 mg/kg of Compound 2. Routes of administration were as follows: Docetaxel was intravenously administered every other day; Compound 2 was intraperitoneally injected daily; the negative control group was intraperitoneally injected with isometric normal saline. The mice were administered for 14 days, during which the mice were weighed daily and the variation trends of body weights of the mice were calculated. The mice were killed 24 hours after the last administration. Their tumor tissues were dissected, the tumor mass was weighed, and the tumor inhibition rate was calculated. The equation for calculating the tumor inhibition rate was as follows: […]
(§6) Statistical analysis: The SPSS 13.0 statistical software was used for data processing. The resulting data were marked with X±S. The data from each group were analyzed by t test, and the P value was used to indicate difference between groups.

[7] = Spleen index, body weight and behavioral observation of mice in the in vivo antitumor test; set-up: species or system BALB/C (nu/nu) nude mice; conditions: nude mice; for effect on body weight of the mice / effect on spleen index of mice (in words): 14 days administration; for Spleen Index (100 × spleen mass/body mass): 14 days, Docetaxel (10 mg/kg as printed in Table 11), Compound 2 7.5 mg/kg
Description: as §5, with “The dosages were 5 mg/kg of Docetaxel (positive), and 7.5 mg/kg of Compound 2.” left out
In the meantime, the spleens were removed from the mice, and the capsules were peeled off. The mass of the spleens of the mice was recorded respectively, and the spleen indices were calculated by the following equation:
spleen index=100×spleen mass/body mass.
as §6

[8] = test system: human breast cancer cell lines (MCF-7 cells); test: In vitro antitumor activity, MTT method; type: cell-based; conditions: for IC50: Homo sapiens, read-out: Cytotoxic Activity IC50; for SI = CC50 (normal cell line L-02)/IC50 (tumor cell line): MCF-7 cell line vs L-02
Description: as §1, §4, §2, §3

[9] = HCT-116 cell line, SRB, 72 hours

| Structure (SMILES) | IC50 ([1]; Jurkat cell line) [µM] | SI = CC50 (normal cell line L-02)/IC50 (tumor cell line) [1] | CC50 at 72 h ([2]; L-02 normal liver cells) [µM] | SI = CC50 (normal cell line L-02)/IC50 (tumor cell line) [3] | IC50 [3, 9] [µM] | SI = CC50 (normal cell line L-02)/IC50 (tumor cell line) [4] | IC50 ([4]; Hela cell line, MTT, 72 hours) [µM] | SI = CC50 (normal cell line L-02)/IC50 (tumor cell line) [5] | other results |
| --- | --- | --- | --- | --- | --- | --- | --- | --- | --- |
| C[C@H]1O[C@H](Oc2cc(/C=N/O)nc(-c3ccccn3)c2)[C@H](O)[C@@H](O)[C@@H]1O [Compound 7] | 1.3 | 45.8 | 59.5 | 27.0 | 2.2 | 23.8 | 2.5 | 6.0 | IC50 ([5]; HepG2 cell line, MTT, 72 hours): 10 µM |
| COc1cc(/C=N/O)nc(-c2ccccn2)c1 [Compound 2] |  | 19.5 |  | 13.0 |  | 39 |  | 19.5 | IC50 ([1]; Jurkat): 0.2 µM; Tumor Weight [6]: 0.59 ± 0.33 g; Inhibition Rate % (tumor inhibition rate) [6]: 42.46%; CC50 at 72 h [2]: 3.9 µM; IC50 ([3]; HCT-116, 72 h): 0.3 µM; effect on body weight of the mice [7]: not adversely affected; effect on spleen index of mice (in words) [7]: no effect; Spleen Index (100 × spleen mass/body mass) [7]: 0.45 ± 0.09; behavioral observation: adverse effects ([7]; within 14 days after administration, 7.5 mg/kg intraperitoneally daily): no obvious adverse effects such as allergy were observed; IC50 ([4]; HeLa, 72 h): 0.1 µM; IC50 ([8]; MCF7, 72 h): 1 µM; SI = CC50 (normal cell line L-02)/IC50 (tumor cell line) [8]: 3.9; IC50 ([5]; HepG2, 72 h): 0.2 µM |
| COc1cc(/C=N/O)nc(-c2ccc(F)cn2)c1 [Compound 5] |  |  | 7.5 |  |  | 1.7 | 4.4 |  |  |
| COc1cc(C=O)nc(-c2ccccn2)c1 [Compound 6] | 14.5 | 2.2 | 31.4 | 5.2 | 6 | 1.6 | 19.3 |  | IC50 ([8]; MCF7, MCF-7 cell line, MTT, 72 hours): 12 µM; SI = CC50 (normal cell line L-02)/IC50 (tumor cell line) [8]: 2.6 |
| COc1cc(/C=N/O)nc(-c2ccccn2)c1O [Compound 4] |  |  |  | 1.2 |  |  |  |  | CC50 at 72 h [2]: 1.7 µM; IC50 ([3]; HCT-116, 72 h): 1.4 µM |
| C[C@@H]1O[C@@H](Oc2cc(/C=N/O)nc(-c3ccccn3)c2)[C@H](O)[C@H](O)[C@H]1O [Compound 1] | 10.8 | 2.6 | 28.3 | 40.4 | 0.7 | 3.1 | 9 | 10.5 | IC50 ([5]; HepG2 cell line, MTT, 72 hours): 2.7 µM |
| CC(=O)O[C@@]12CO[C@@H]1C[C@H](O)[C@@]1(C)C(=O)[C@H](O)C3=C(C)[C@@H](OC(=O)[C@H](O)[C@@H](NC(=O)OC(C)(C)C)c4ccccc4)C[C@@](O)([C@@H](OC(=O)c4ccccc4)[C@H]21)C3(C)C [Docetaxel, reference compound] |  |  |  |  |  |  |  |  | Tumor Weight [6]: 0.13 ± 0.07 g; Inhibition Rate % (tumor inhibition rate) [6]: 87.39%; effect on body weight of the mice [7]: decreased; effect on spleen index of mice (in words) [7]: decreased; Spleen Index (100 × spleen mass/body mass) [7]: 0.25 ± 0.11 |
